Results from ChEMBL document CHEMBL1817642, “Stereoselective synthesis and antimicrobial activity of steroidal C-20 tertiary alcohols with thiazole/pyridine side chain” (2011).
In brackets after ≈: the same amount, converted by molar mass.

Assays:
Type in all cases: functional
Escherichia coli = test: Antibacterial activity against Escherichia coli NCIM 2574 after 24 hrs by NCCLS method; settings: NCIM 2574, 24 h
Yarrowia lipolytica = test: Antifungal activity against Yarrowia lipolytica isolate NCL4 after 24 hrs by broth dilution method; settings: isolate NCL4, 24 h
Staphylococcus aureus = test: Antibacterial activity against Staphylococcus aureus NCIM 2122 after 24 hrs by NCCLS method; settings: NCIM 2122, 24 h
Cryptococcus neoformans = test: Antifungal activity against Cryptococcus neoformans isolate NCL2 after 72 hrs by broth dilution method; settings: isolate NCL2, 72 h
Fusarium oxysporum = test: Antifungal activity against Fusarium oxysporum isolate NCL5 after 48 hrs by broth dilution method; settings: isolate NCL5, 48 h
Candida albicans = test: Antifungal activity against Candida albicans isolate NCL1 after 48 hrs by broth dilution method; settings: isolate NCL1, 48 h
Benjaminiella poitrasii = test: Antifungal activity against Benjaminiella poitrasii isolate NCL3 after 24 hrs by M38-P broth dilution method; settings: isolate NCL3, 24 h

SMILES | MIC90 (Escherichia coli) [µg/mL] | MIC90 (Yarrowia lipolytica) [µg/mL] | MIC90 (Staphylococcus aureus) [µg/mL] | MIC90 (Cryptococcus neoformans) [µg/mL] | MIC90 (Fusarium oxysporum) [µg/mL] | MIC90 (Candida albicans) [µg/mL] | MIC90 (Benjaminiella poitrasii) [µg/mL]
C[C@]12CC[C@H](O)C[C@@H]1CC[C@@H]1[C@@H]2CC[C@@]2(C)[C@H]1CC[C@@H]2[C@@](C)(O)c1ccccn1 | 8 (≈ 20.1 µM) | 32 (≈ 80.5 µM) | 8 (≈ 20.1 µM) | 64 (≈ 161 µM) | > 64 | 32 (≈ 80.5 µM) | 64 (≈ 161 µM)
CC(C)(C)[Si](C)(C)O[C@H]1CC[C@@]2(C)C(=CC[C@H]3[C@@H]4CC[C@H]([C@@](C)(O)c5nccs5)[C@@]4(C)CC[C@@H]32)C1 | 8 (≈ 15.5 µM) | > 64 | 16 (≈ 31 µM) | > 64 | > 64 | 16 (≈ 31 µM) | > 64
C[C@]12CC[C@H]3[C@@H](CC=C4C[C@@H](O)CC[C@@]43C)[C@@H]1CC[C@@H]2[C@@](C)(O)c1nccs1 | 8 (≈ 19.9 µM) | 32 (≈ 79.7 µM) | 8 (≈ 19.9 µM) | 32 (≈ 79.7 µM) | 64 (≈ 159 µM) | 16 (≈ 39.8 µM) | 32 (≈ 79.7 µM)
CC(=O)O[C@H]1CC[C@@]2(C)C(=CC[C@H]3[C@@H]4CC[C@H]([C@@](C)(O)c5nccs5)[C@@]4(C)CC[C@@H]32)C1 | 8 (≈ 18 µM) | > 64 | 32 (≈ 72.1 µM) | 32 (≈ 72.1 µM) | 64 (≈ 144 µM) | > 64 | 32 (≈ 72.1 µM)
CC(C)(C)[Si](C)(C)O[C@H]1CC[C@@]2(C)[C@@H](CC[C@@H]3[C@@H]2CC[C@@]2(C)[C@H]3CC[C@@H]2[C@@](C)(O)c2nccs2)C1 | 16 (≈ 30.9 µM) | 64 (≈ 124 µM) | 16 (≈ 30.9 µM) | > 64 | 64 (≈ 124 µM) | > 64 | 32 (≈ 61.8 µM)
C[C@]12CC[C@H](O)C[C@@H]1CC[C@@H]1[C@@H]2CC[C@@]2(C)[C@H]1CC[C@@H]2[C@@](C)(O)c1nccs1 | 16 (≈ 39.6 µM) | > 64 | 32 (≈ 79.3 µM) | 32 (≈ 79.3 µM) | > 64 | 64 (≈ 159 µM) | > 64
CC(=O)O[C@H]1CC[C@@]2(C)[C@@H](CC[C@@H]3[C@@H]2CC[C@@]2(C)[C@H]3CC[C@@H]2[C@@](C)(O)c2nccs2)C1 | 16 (≈ 35.9 µM) | > 64 | 16 (≈ 35.9 µM) | 64 (≈ 144 µM) | 16 (≈ 35.9 µM) | 8 (≈ 18 µM) | 16 (≈ 35.9 µM)
CC(C)(C)[Si](C)(C)O[C@H]1CC[C@@]2(C)C(=CC[C@H]3[C@@H]4CC[C@H]([C@@](C)(O)c5ccccn5)[C@@]4(C)CC[C@@H]32)C1 | 16 (≈ 31.4 µM) | 8 (≈ 15.7 µM) | 8 (≈ 15.7 µM) | 32 (≈ 62.8 µM) | 8 (≈ 15.7 µM) | 16 (≈ 31.4 µM) | 16 (≈ 31.4 µM)
C[C@]12CC[C@H]3[C@@H](CC=C4C[C@@H](O)CC[C@@]43C)[C@@H]1CC[C@@H]2[C@@](C)(O)c1ccccn1 | 16 (≈ 40.4 µM) | 32 (≈ 80.9 µM) | 8 (≈ 20.2 µM) | 64 (≈ 162 µM) | 16 (≈ 40.4 µM) | > 64 | 32 (≈ 80.9 µM)
CC(=O)O[C@H]1CC[C@@]2(C)C(=CC[C@H]3[C@@H]4CC[C@H]([C@@](C)(O)c5ccccn5)[C@@]4(C)CC[C@@H]32)C1 | 8 (≈ 18.3 µM) | 16 (≈ 36.6 µM) | 32 (≈ 73.1 µM) | > 64 | 64 (≈ 146 µM) | > 64 | 32 (≈ 73.1 µM)
CC(C)(C)[Si](C)(C)O[C@H]1CC[C@@]2(C)[C@@H](CC[C@@H]3[C@@H]2CC[C@@]2(C)[C@H]3CC[C@@H]2[C@@](C)(O)c2ccccn2)C1 | 8 (≈ 15.6 µM) | > 64 | 16 (≈ 31.3 µM) | 16 (≈ 31.3 µM) | 32 (≈ 62.5 µM) | 32 (≈ 62.5 µM) | 64 (≈ 125 µM)
CC(=O)O[C@H]1CC[C@@]2(C)[C@@H](CC[C@@H]3[C@@H]2CC[C@@]2(C)[C@H]3CC[C@@H]2[C@@](C)(O)c2ccccn2)C1 | 8 (≈ 18.2 µM) | 64 (≈ 146 µM) | 16 (≈ 36.4 µM) | 64 (≈ 146 µM) | > 64 | 16 (≈ 36.4 µM) | 16 (≈ 36.4 µM)
CC(=O)[C@H]1[C@H](c2ccccn2)C[C@H]2[C@@H]3CC=C4C[C@@H](OS(C)(C)C(C)(C)C)CC[C@]4(C)[C@H]3CC[C@@]21C | 16 (≈ 31.3 µM) | 8 (≈ 15.6 µM) | 16 (≈ 31.3 µM) | > 64 | 64 (≈ 125 µM) | 32 (≈ 62.5 µM) | 64 (≈ 125 µM)
CC(=O)[C@H]1[C@H](c2ccccn2)C[C@H]2[C@@H]3CC=C4C[C@@H](O)CC[C@]4(C)[C@H]3CC[C@@]21C | 16 (≈ 40.7 µM) | 16 (≈ 40.7 µM) | 8 (≈ 20.3 µM) | > 64 | 64 (≈ 163 µM) | 32 (≈ 81.3 µM) | 32 (≈ 81.3 µM)
CC(=O)O[C@H]1CC[C@@]2(C)C(=CC[C@H]3[C@@H]4C[C@@H](c5ccccn5)[C@H](C(C)=O)[C@@]4(C)CC[C@@H]32)C1 | 16 (≈ 36.7 µM) | > 64 | 16 (≈ 36.7 µM) | 32 (≈ 73.5 µM) | 32 (≈ 73.5 µM) | > 64 | 64 (≈ 147 µM)
C[C@@H]1[C@H](O)[C@@H](C)/C=C/C=C/C=C/C=C/C=C/C=C/C=C/[C@H](O[C@@H]2O[C@H](C)[C@@H](O)[C@H](N)[C@@H]2O)C[C@@H]2O[C@](O)(C[C@@H](O)C[C@@H](O)[C@H](O)CC[C@@H](O)C[C@@H](O)CC(=O)O[C@H]1C)C[C@H](O)[C@H]2C(=O)O [AMPHOTERICIN B] |  | 16 (≈ 17.3 µM) |  | 16 (≈ 17.3 µM) | 16 (≈ 17.3 µM) | 2 (≈ 2.16 µM) | 16 (≈ 17.3 µM)
CC[C@H]1OC(=O)[C@H](C)[C@@H](O[C@H]2C[C@@](C)(OC)[C@@H](O)[C@H](C)O2)[C@H](C)[C@@H](O[C@@H]2O[C@H](C)C[C@H](N(C)C)[C@H]2O)[C@](C)(O)C[C@@H](C)C(=O)[C@H](C)[C@@H](O)[C@]1(C)O [ERYTHROMYCIN] | > 64 |  | 32 (≈ 43.6 µM) |  |  |  | 
OC(Cn1cncn1)(Cn1cncn1)c1ccc(F)cc1F [FLUCONAZOLE] |  | 64 (≈ 209 µM) |  | 32 (≈ 104 µM) | 8 (≈ 26.1 µM) | 32 (≈ 104 µM) | 32 (≈ 104 µM)
CN(C)[C@@H]1C(O)=C(C(N)=O)C(=O)[C@@]2(O)C(O)=C3C(=O)c4c(O)cccc4[C@@](C)(O)[C@H]3C[C@@H]12 [TETRACYCLINE] | 8 (≈ 18 µM) |  | 16 (≈ 36 µM) |  |  |  | 
